Patent publication US9180118B2, “Thiadiazolidinone derivatives” (University of Rochester, priority 2006, dated 2015)
Where two headings read alike, the source gives them in different places.

How the values were obtained:
[1] = test system: primary AML, ALL and CLL specimens; experiment: Free thiol analysis by mBBr labeling, leukemia specimens; assay type: cell-based, human; conditions: 20 μM TDZD-8, as early as 30 minutes after exposure
Protocol: C. […] Intracellular thiol levels were assessed by flow cytometry after labeling with 50 μM monobromobimane (molecular probes).

PICA = PICA (Homo sapiens, UniProt P17612); conditions: reported; cited from earlier work
[2] = test system: normal CB cells (hematopoietic stem cells); experiment: NOD/SCID xenotransplant engraftment of normal CB cells treated in culture; assay type: in vivo, human; conditions: cells cultured 18 hours with 20 μM TDZD-8; n=3; NOD/SCID mice
Protocol: NOD/SCID (NOD.CB17-prdkdc scid/J) mice (Jackson Laboratories, Bar Harbor, Me.) were sub-lethally irradiated with 270 rad using a RadSource™ X-ray irradiator the day before transplantation. Cells to be assayed (AML or normal umbilical cord blood—CB) were injected via tail vein (5-10 million cells) in a final volume of 0.2 ml of PBS with 0.5% FBS. After 6-8 weeks, animals were sacrificed and BM was isolated.

[3] = test system: primary blast crisis CML (bcCML) specimens; experiment: Viability of primary bcCML specimens, Annexin V/7-AAD; assay type: cell-based; conditions: Homo sapiens, 24 h; read-out: mean viability relative to untreated controls
AML progenitor cells = experiment: Methylcellulose colony assay, AML; assay type: cell-based, human; conditions: 20 μM TDZD-8, 18 hours before plating, n=11
Protocol: Cells were then plated at 50,000 cells/ml in Methocult™ GF H4534 (1% methylcellulose in IMDM, 30% FBS, 1% BSA, 10^−4M 2-mercaptoethanol, 2 mM L-glutamine, 50 ng/ml rh stem cell factor, 10 ng/ml rh GM-CSF, 10 ng/ml rh IL-3-Stem Cell Technologies, Vancouver, B.C.) supplemented with 3 units/ml of erythropoietin and 50 ng/ml G-CSF (R&D Systems, Minneapolis, Minn.). Colonies were scored after 10-14 days of culture.

[4] = test system: cell lines derived from hematologic malignancies; experiment: NCI-60 screen, average; assay type: cell-based; conditions: Homo sapiens; average over hematologic lines of NCI-60; read-out: average concentration to achieve 50% growth inhibition (GI50)
Description: (§1) In contrast the cell viability for normal specimens was 79.5% (n=13).

[5] = test system: Renal cancer, 7 cell lines; experiment: NCI-60 screen; assay type: cell-based; conditions: Homo sapiens
Description: as §1

CCRF-CEM = experiment: NCI-60 screen; assay type: cell-based; conditions: Homo sapiens
Description: as §1

[6] = test system: Non-small cell lung cancer, 9 cell lines; experiment: NCI-60 screen; assay type: cell-based; conditions: Homo sapiens
Description: as §1

[7] = test system: Colon cancer, 7 cell lines; experiment: NCI-60 screen; assay type: cell-based; conditions: Homo sapiens
Description: as §1

SR = experiment: NCI-60 screen; assay type: cell-based; conditions: Homo sapiens
Description: as §1

CNS cancer, 6 cell lines = experiment: NCI-60 screen; assay type: cell-based; conditions: Homo sapiens
Description: as §1

RPMI-8226 = experiment: NCI-60 screen; assay type: cell-based; conditions: Homo sapiens
Description: as §1

[8] = test system: Breast cancer, 7 cell lines; experiment: NCI-60 screen; assay type: cell-based; conditions: Homo sapiens
Description: as §1

[9] = test system: Prostate cancer, 2 cell lines; experiment: NCI-60 screen; assay type: cell-based; conditions: Homo sapiens
Description: as §1

Melanoma, 8 cell lines = experiment: NCI-60 screen; assay type: cell-based; conditions: Homo sapiens
Description: as §1

HL-60 = experiment: NCI-60 screen; assay type: cell-based; conditions: Homo sapiens
Description: as §1

[10] = test system: Ovarian cancer, 5 cell lines; experiment: NCI-60 screen; assay type: cell-based; conditions: Homo sapiens
Description: as §1

K-562 = experiment: NCI-60 screen; assay type: cell-based; conditions: Homo sapiens
Description: as §1

CK-II = CK-II (Homo sapiens, UniProt P68400); conditions: reported; cited from earlier work
[11] = assay type: cell-based; conditions: human, CD34+CD38− cells gated from healthy (normal) specimens
CD34+CD38− bcCML cells = assay type: cell-based; conditions: Homo sapiens, 24 h
[12] = Viability of normal specimens (BM, CB, MPB), Annexin V/7-AAD; assay type: cell-based, human; conditions: human; read-out: cell viability relative to untreated controls
Protocol: (§2) The cells were isolated and processed as described. […] All drug treatments were performed in triplicate. […] Total viable cell numbers were determined using a flow cytometric apoptosis assay as described. Briefly, after 18 h of treatment, specimens were labeled with anti-CD34-PE (Becton Dickinson, San Jose, Calif.) for 20 minutes. […] The total number of events collected was 100,000. The percent viable cells was defined as AnnexinV^neg/7-AAD^neg cells on total (ungated) cells and on gates set for CD34^+ populations. • [1] Jordan, C. T., et al., The interleukin-3 receptor alpha chain is a unique marker for human acute myelogenous leukemia stem cells. Leukemia, 2000. 14(10): p. […] Lansdorp, P. M. and W. Dragowska, Long-term erythropoiesis from constant numbers of CD34+ cells in serum-free cultures initiated with highly purified progenitor cells from human bone marrow. […] Guzman, M. L., et al., Nuclear factor-kappaB is constitutively activated in primitive human acute myelogenous leukemia cells. […] 98(8): p.

[13] = test system: normal specimens (BM, CB, MPB); experiment: as above; assay type: cell-based, human; conditions: normal specimens
Protocol: as §2

[14] = test system: pro-caspases 3, 8 or PARP; experiment: Immunoblot for caspase-dependent apoptotic events; assay type: cell-based, human; conditions: TDZD-8 treated cells, data not shown
Protocol: Immunoblots. Cells were prepared and analyzed as previously described.^35 Membrane fractions were prepared using mem-PER eukaryotic membrane protein extraction kit as per manufacturer's instructions (Pierce; Rockford, Ill.). Blots were probed with phospho-PKC (pan) (beta II; Ser660), phospho-PKCalpha/betaII (Thr638/641), total PKCα, PKCβ and FLT3 (Santa Cruz Biotechnology, Calif.), Caspase-3 (Cell Signaling technologies; Danvers, Mass.); caspase-8 and PARP (BD bioscience), cleaved PARP (abcam) or anti-actin (AC-15; Sigma) antibodies.

[15] = read-out: Log10 GI50 (converted)

Sequence of CK-II (P68400 whole entry): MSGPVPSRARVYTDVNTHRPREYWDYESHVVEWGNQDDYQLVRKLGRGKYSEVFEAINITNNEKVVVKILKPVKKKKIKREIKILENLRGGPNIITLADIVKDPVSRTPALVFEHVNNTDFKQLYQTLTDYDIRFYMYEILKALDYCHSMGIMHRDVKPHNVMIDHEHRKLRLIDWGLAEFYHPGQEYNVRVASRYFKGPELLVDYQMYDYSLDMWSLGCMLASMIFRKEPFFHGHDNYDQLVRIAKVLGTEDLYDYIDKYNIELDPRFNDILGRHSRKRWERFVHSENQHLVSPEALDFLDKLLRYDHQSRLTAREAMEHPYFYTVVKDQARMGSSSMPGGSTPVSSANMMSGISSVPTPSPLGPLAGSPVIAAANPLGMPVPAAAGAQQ

## Cn1sc(=O)n(Cc2ccccc2)c1=O [TDZD-8, 4-benzyl-2-methyl-1,2,4-thiadiazolidine-3,5-dione]
[1]
  mBBr labeling (free thiol groups): reduction in mBBr labeling is evident
PICA
  IC50: > 100 µM
[2]
  effect on the engraftment of normal specimens: little to no effect
[3]
  viability at 20 µM: 21.6%
AML progenitor cells
  CFU, normalized to untreated controls: 7.3%
[4]
  GI50: 8.3 µM
[5]; read-out: GI50
  GI50: > 100 µM
[5]; [15]
  GI50: > 100 µM
CCRF-CEM; read-out: GI50
  GI50: 11.5 µM
CCRF-CEM; [15]
  GI50: 11.5 µM
[6]; read-out: GI50
  GI50: > 100 µM
[6]; [15]
  GI50: > 100 µM
[7]; read-out: GI50
  GI50: > 100 µM
[7]; [15]
  GI50: > 100 µM
SR; read-out: GI50
  GI50: 0.01 µM
SR; [15]
  GI50: 0.01 µM
CNS cancer, 6 cell lines; read-out: GI50
  GI50: > 100 µM
CNS cancer, 6 cell lines; [15]
  GI50: > 100 µM
RPMI-8226; read-out: GI50
  GI50: 23.4 µM
RPMI-8226; [15]
  GI50: 23.4 µM
[8]; read-out: GI50
  GI50: > 100 µM
[8]; [15]
  GI50: > 100 µM
[9]; read-out: GI50
  GI50: > 100 µM
[9]; [15]
  GI50: > 100 µM
Melanoma, 8 cell lines; read-out: GI50
  GI50: > 100 µM
Melanoma, 8 cell lines; [15]
  GI50: > 100 µM
HL-60; read-out: GI50
  GI50: 0.2 µM
HL-60; [15]
  GI50: 0.234 µM
[10]; read-out: GI50
  GI50: > 100 µM
[10]; [15]
  GI50: > 100 µM
K-562; K562, read-out: GI50
  GI50: 6.5 µM
K-562; K562, read-out: Log10 GI50 (converted)
  GI50: 6.46 µM
CK-II
  IC50: > 100 µM
[11]
  viability at 24 h, 20 μM: 80.2%
CD34+CD38− bcCML cells
  viability at 20 µM: 2.8%
[12]
  viability at 24 h, 20 μM: 79.5%
[13]
  Cytotoxic Normal: No
[14]
  cleavage of pro-caspases 3, 8 or PARP: no cleavage of pro-caspases 3, 8 or PARP was detected
